The results in this text go back to patent publication EP1131073B1, “USE OF STAUROSPORINE DERIVATIVES FOR TREATING OCULAR NEOVASCULAR DISEASES” (Novartis AG, priority 1998, dated 2000).

Data set [1] deals with retinal neovascularization. Kind of data set: Oxygen-induced ischemic retinopathy in mice, lectin-stained retinal sections with image analysis. Type of data set: in vivo, C57/BL6J mice. Conditions: for clumps of neovascularization on the surface of the retina: compared to vehicle-treated control mice. As to the method: Ischemic retinopathy is produced in C57/BL6J mice by a method described by Smith et al., Oxygen-induced Retinopathy in the Mouse, Invest. Ophthalmol. Vis. Sci. 35, 101-111 (1994). Seven-day-old mice and their mothers are placed in an airtight incubator and exposed to an atmosphere of 75 ± 3% oxygen for 5 days. Incubator temperature is maintained at 23 ± 2°C, and oxygen is measured every 8 hours with an oxygen analyzer. After 5 days, the mice are removed from the incubator, placed in room air, and subjected to a drug treatment. […] Vehicle (1% DMSO) or vehicle containing various concentrations of the drug (volume = 10 µl per gram body weight) is placed in the stomach by gavage.
(§1) After 5 days of treatment, the mice are sacrificed, eyes are rapidly removed and frozen in optimum cutting temperature embedding compound (OCT; Miles Diagnostics, Elkhart, IN) or fixed in 10% phosphate-buffered formalin and embedded in paraffin. Adult C57BL6J mice are also treated by gavage with the drug or vehicle and after 5 days, they are sacrificed and their eyes are processed for frozen or paraffin sections.
Slides are incubated in methanol/H2O2 for 10 minutes at 4°C, washed with 0.05 M Tris-buffered saline, pH 7.6 (TBS), and incubated for 30 minutes in 10% normal porcine serum. Slides are incubated 2 hours at room temperature with biotinylated lectin and after rinsing with 0.05M TBS, they are incubated with avidin coupled to peroxidase (Vector Laboratories) for 45 minutes at room temperature. After being washed for 10 minutes with 0.05 M TBS, slides are incubated with diaminobenzidine to give a brown reaction product. Some slides are counterstained with hematoxyln and all were mounted with Cytoseal.
To perform quantitative assessments, 10 µm serial sections are cut through half of each eye and sections roughly 50-60 µm apart are stained with lectin, providing 13 sections per eye for analysis. Lectin-stained sections are examined with an Axioskop microscope (Zeiss, Thornwood, NY) and images are digitized using a 3 CCD color video camera (IK-TU40A, Toshiba, Tokyo, Japan) and a frame grabber. Image-Pro Plus software (Media Cybernetics, Silver Spring, MD) is used to delineate lectin-stained cells on the surface of the retina and their area is measured. The mean of the 13 measurements from each eye is used as a single experimental value.

For data set [2], the system named is endothelial cells of mature vessels. Put plainly: Effect on mature retinal vessels of adult mice, endothelial staining with image analysis. Type of data set: in vivo, Adult C57BL6J mice. Conditions: 600 mg/kg by gavage once a day for 5 days. On the procedure: as §1
Data set [3] deals with retinal vascular development. Kind of data set: Retinal vascular development in neonatal mice, fluorescein-dextran perfused retinal flat mounts. Format: in vivo, newborn C57/BL6J mice. The following applies: 100 mg/kg daily subcutaneous. As to the method: Litters of newborn C57/BL6J mice (neonatal mice) are divided into treatment and control groups which received daily subcutaneous injections of 100 mg/kg of the drug or vehicle, respectively. At 7 or 10 days of age, the mice are anesthetized with ether, and perfused with 1 ml of phosphate-buffered saline containing 50 mg/ml of fluorescein-labeled dextran (2x10^6 average mw, Sigma, St. Louis, MO) as described by Tobe et al., Evolution of Neovascularization in Mice with Overexpression of VEGF in Photoreceptors, Invest. Ophthalmol. Vis. Sci. 39, 180-188 (1998). The eyes are removed and fixed for 1 hour in 10% phosphate-buffered formalin. The cornea and lens are removed and the entire retina is carefully dissected from the eyecup. Radially cuts are made from the edge of the retina to the equator in all 4 quadrants, and the retina is flat-mounted in Aquamount with photoreceptors facing upward. The flat mounts are examined by fluorescence microscopy, and the images are digitized using a 3 CCD color video camera and a frame grabber. Image-Pro™ Plus is used to measure the distance from the center of the optic nerve to the leading front of developing retinal vessels in each quadrant and the mean is used as a single experimental value.

Data set [4] has as its system choroidal neovascularization. Put plainly: Laser-induced rupture of Bruch's membrane, choroidal neovascularization in mice. Type of data set: in vivo, C57BL/6J mice. The following applies: 400 mg/kg/day orally by gavage. On the procedure:
C57BL/6J mice are treated in accordance with the Association for Research in Vision and Ophthalmology resolution for the treatment of animals. […] J Path, in press. Briefly, 4 to 5 week old male C57BL/6J mice are anesthetized with ketamine hydrochloride (100 mg/kg body weight) and the pupils are dilated with 1% tropicamide. Three bums of krypton laser photocoagulation (100 µm spot size, 0.1 seconds duration, 150 mW) are delivered to each retina using the slit lamp delivery system of a Coherent Model 920 Photocoagulator and a hand held cover slide as a contact lens. Bums are performed in the 9, 12, and 3 o'clock positions of the posterior pole of the retina. Production of a bubble at the time of laser, which indicates rupture of Bruch's membrane, is an important factor in obtaining CNV, so only mice in which a bubble is produced for all three bums are included. […] After 14 days, the mice are killed with an overdose of pentobarbital sodium, and their eyes are rapidly removed and frozen in optimal cutting temperature embedding compound (OCT). Frozen serial sections (10 µm) are cut through the entire extent of each burn and histochemically stained with biotinylated griffonia simplicifolia lectin B4 (Vector Laboratories, Burlingame, CA), which selectively binds to endothelial cells. Slides are incubated in methanol/H2O2 for 30 minutes at 4°C, washed with 0.05 M Tris-buffered saline, pH 7.4 (TBS), and incubated for 30 minutes in 10% normal swine serum. Slides are rinsed with 0.05M TBS and incubated 2 hours at 37°C with biotinylated lectin. After being rinsed with 0.05M TBS, slides are incubated with Streptavidin-phosphatase (Kirkegaard and Perry Laboratories, Cabin John, MD) for 30 minutes at room temperature. […]
To perform quantitative assessments, lectin-stained sections are examined with an Axioskop microscope (Zeiss, Thornwood, NY) and images are digitized using a 3 CCD color video camera (IK-TU40A, Toshiba, Tokyo, Japan) and a frame grabber. […]

[5] abbreviates: 300 mg/kg twice a day by gavage.

On to `CO[C@@H]1[C@H](N(C)C(=O)c2ccccc2)C[C@H]2O[C@]1(C)n1c3ccccc3c3c4c(c5c6ccccc6n2c5c31)C(=O)NC4` [NBS, N-benzoyl-staurosporine], for which the “endothelial cell staining on and in the retinas (image analysis)” value in data set [1] (60 mg/kg once a day, compared to vehicle-treated mice) was “significantly less”. In data set [1] (60 mg/kg twice a day by gavage), the “endothelial staining within the retina” value was “some decrease” and the “clumps of neovascularization on the surface of the retina” value is “less than clumps in the retina of the vehicle-treated control mice”. Besides, in data set [1] (setting [5]), the “endothelial staining within the retina” value was “some decrease” and the “clumps of neovascularization on the surface of the retina” value is on record as “less than clumps in the retina of the vehicle-treated control mice”. The “endothelial cell staining in the inner nuclear layer and outer plexiform layer” value in data set [1] (600 mg/kg once a day for 5 days) is given as “striking absence”. In addition, the “endothelial cell staining on the surface and within the retina” value in data set [1] (600 mg/kg once a day for 5 days by gavage, compared to vehicle-treated mice) is reported as “dramatic decrease”. Besides, the “endothelial cell staining within the retina” value in data set [1] (600 mg/kg once a day for 5 days, compared to nonischemic mice) is reported as “less than that of the nonischemic mice”. In addition, in data set [1] (600 mg/kg once a day, compared to vehicle-treated mice), the “endothelial cell staining on and in the retinas (image analysis)” value is “significantly less”. In addition, the “toxicity to endothelial cells of mature vessels” value in data set [2] is recorded as “not toxic”. Further, the “total area of endothelial staining in the retina or the appearance of retinal vessels” value in data set [2] (compared to vehicle-treated mice) is “no difference”. Also, in data set [3] (at 7 days of age), the “extension of retinal vessels” value is recorded as “only extend slightly more than halfway to the periphery”. In data set [3] (at 10 days of age), the “extension of superficial capillary bed” value was “has not yet reached the edge of the retina”. For the same molecule, the “integrated area of lectin staining per lesion” value in data set [4] (14 days, vehicle alone 0.0695621 ± 0.0073960 mm^2, p=0.004) was determined as 0.009018 ± 0.001754 mm^2. For the same molecule, in data set [4] (two weeks after laser), the “appearance of overlying retinal vessels” value was “appear normal” and the “choroidal neovascularization at the site of each laser-induced rupture of Bruch's membrane” value is on record as “very little if any”.
